# Tested on: cotton melon aphid (Aphis gossypii (Glover))
# Assay: Test C: control of cotton melon aphid on sprayed okra plant
# Format: in vivo
# Conditions: sprayed at 250 ppm; assessed after 6 days
# Procedure: Test compounds were formulated using a solution containing 10% acetone, 90% water and 300 ppm Activator 90@non-ionic surfactant (Loveland Products, Loveland, Colorado, USA). The formulated compounds were applied in 1 mL of liquid through an atomized nozzle positioned 1.27 cm (0.5 inches) above the top of each test unit. Test compounds were sprayed at the rates indicated, and each test was replicated three times.
# For evaluating control of cotton melon aphid (Aphis gossypii (Glover)) through contact and/or systemic means, the test unit consisted of a small open container with a 5-day-old okra plant inside. This was pre-infested with 30-40 insects on a piece of leaf according to the cut-leaf method, and the soil of the test unit was covered with a layer of sand.
# Test compounds were formulated and sprayed at 250, 50, 10, and 2 ppm with three replications as described above. After spraying, the test units were maintained in a growth chamber for 6 days at 19° C. and 70% relative humidity. Each test unit was then visually assessed for insect mortality.
structure (smiles),measurement,value
CC(c1c([N+](=O)[O-])cnn1-c1ncccn1)N(C)C(=O)c1cc(C(F)(F)F)cc(C(F)(F)F)c1 (stereo not shown) [Compound 96],mortality,at least 80%

# Source: patent publication US20260083129A1, “PYRAZOLE AMIDE INSECTICIDES” (FMC CORPORATION, priority 2022, published 2026)
